Assay results from patent publication US12496290B2, “Method and compounds for treating or preventing autoimmune disorders or immune responses modulated by the expression of IDO1” (The Trustees of Princeton University, priority 2019, dated 2025).

How the values were obtained:
IDO1 = IDO1 (Homo sapiens, UniProt P14902); assay: IDO1 activity assay, N-formylkynurenine absorbance at 321 nm; assay type: biochemical
Protocol: FIG. 6 reflects a system involving IDO1 (50 nM), 0.1 mM L-tryptophan, and 5 mM glutathione in 100 mM sodium phosphate, pH 7.0 with <1 μM 6-chloro-5-fluoro-1H-indole-3-thiol.
The activity of the compounds was determined as follows. UV—vis spectra were recorded using a Hewlett-Packer 8453 diode array spectrophotometer. Activity assays were done at room temperature using 100 mM sodium phosphate, pH 7.0, with 500 nM IDO1 (ε404 nm=172 mM^−1 cm^−1) and 50 μM L-tryptophan. These were initiated by addition of IDO1, and activity was monitored at 321 nm where product N-formylkynurenine absorbs (ε321 nm=3750 M^−1 cm^−1).
The substituted indole compound was prepared daily in a 100 mM stock solution in dimethyl sulfoxide (DMSO), and this was serially diluted to maintain a consistent final concentration of 1% (v/v) DMSO in each assay. To maintain activity, 5 mM reduced glutathione was added to some of these from a 0.5 M stock solution. The substituted indole compound was generally tested from 100 nM to 10 μM. The ability of each compound to serve as a reducing substrate for IDO1 was fit using a Michaelis—Menten equation. […] Above 5 μM 3MI, there was a steep inhibitory effect.

ferric IDO1 = ferric IDO1 (Homo sapiens, UniProt P14902); assay: Stopped-flow UV-vis spectrometry of binding to ferric IDO1
Protocol: FIG. 3 is a graph showing the second-order rate constant of 3MI binding to ferric IDO1 determined by stopped-flow spectrometry.
FIG. 4 is a graph showing stopped-flow UV—vis spectrometry of 3MI (30 μM) binding to IDO1 (1.4 μM) over 0.2 s.
3-Mercaptoindole (3MI) was seen to bind to IDO1 with a fast on-rate of 1.7×10^6 M^−1 s^−1 under pseudo-first-order conditions (See FIG. 3), producing a UV—vis spectrum (see FIG. 4) that has a Soret at 424 nm, a lower peak at 321 nm, and broad q-bands at 537 nm and a shoulder at about 575 nm. […] Note that although 3MI is referred to here, similar results can be seen with other substituted indole compounds disclosed herein.
Using 3MI, there was an initial burst of IDO1 activity, which leveled off after 500 s, well before substrate tryptophan was consumed (FIG. 2, 202). Reduced glutathione was added to the activity assay solutions at nearly cellular concentrations (5 mM) to reduce any oxidized 3MI-disulfide products that may have formed, and this allowed for sustained 3MI-induced IDO1 activity (FIG. 2, 201).

ferric-superoxo IDO1 = ferric-superoxo IDO1 (Homo sapiens, UniProt P14902); assay: Double-mixing stopped-flow spectrometry with ferric-superoxo IDO1; assay type: biochemical; conditions: lowest 3MI concentration useful for pseudo-first-order conditions; nearly within instrument mixing time
Protocol: The nature of substituted indole compound-inhibition at high concentrations (>5 μM) was examined further with ferric-superoxo IDO1, the active tryptophan-oxidizing species. Ferric-superoxo IDO1 was generated using double-mixing stopped-flow spectrometry by mixing IDO1 prereduced with 2 mM sodium dithionite into aerobic buffer for 0.5 s. This ferric superoxo species was then mixed in the second push with 3MI that had been maintained in the reduced state using 5 mM glutathione. 3MI readily reacted with ferric-superoxo IDO1 to form ferric IDO1 without any observable intermediates. This was shown by a fast shift from the ferric-superoxo complex (λmax 415 nm) to the ferric (λmax 404 nm) that was completed nearly within the mixing time of the instrument (<10 ms) even at the lowest concentration of 3MI useful for pseudo-first-order reaction conditions (where 3MI must be at a large excess over IDO1). Following this fast conversion to ferric IDO1, there was a slower shift to the ferric 3MI-bound complex as indicated by the Soret shifting to 424 nm (as in FIG. 4). To account for both reactions, these traces were fit using a double exponential expression.

myoglobin = assay: Heme protein selectivity, stopped-flow UV-vis: myoglobin; assay type: biochemical; conditions: pseudo-first-order conditions
Protocol: (§1) Since hydrogen sulfide and polysulfides are known to react with other heme proteins, the selectivity of 3MI for IDO1 was examined by mixing the substituted indole compounds (such as 3MI) with several other heme proteins and observing their reactions using stopped-flow UV—vis spectrometry.
(§2) The substituted indole compounds had no effect on catalase even at 250 μM, whereas the substituted indole compounds did appear to reduce myoglobin and hemoglobin, producing their oxygen-bound forms. The substituted indole compound were also able to reduce ferric cytochrome c to its distinctive ferrous form. The second-order rate constants of these reactions were determined under pseudo-first-order conditions giving 6.6×10^3, 1.6×10^4, and 2.7×10^5 M^−1 s^−1 for myoglobin, hemoglobin, and cytochrome c, respectively. […] Unlike myoglobin and hemoglobin, the oxy-form of IDO1 was not observed due to the relatively slow reduction of IDO1 by 3MI.

hemoglobin = assay: Heme protein selectivity, stopped-flow UV-vis: hemoglobin; assay type: biochemical; conditions: pseudo-first-order conditions
Protocol: as §1, §2

ferric cytochrome c = assay: Heme protein selectivity, stopped-flow UV-vis: cytochrome c; assay type: biochemical; conditions: pseudo-first-order conditions
Protocol: as §1, §2

IDO1, sequence (P14902 whole entry): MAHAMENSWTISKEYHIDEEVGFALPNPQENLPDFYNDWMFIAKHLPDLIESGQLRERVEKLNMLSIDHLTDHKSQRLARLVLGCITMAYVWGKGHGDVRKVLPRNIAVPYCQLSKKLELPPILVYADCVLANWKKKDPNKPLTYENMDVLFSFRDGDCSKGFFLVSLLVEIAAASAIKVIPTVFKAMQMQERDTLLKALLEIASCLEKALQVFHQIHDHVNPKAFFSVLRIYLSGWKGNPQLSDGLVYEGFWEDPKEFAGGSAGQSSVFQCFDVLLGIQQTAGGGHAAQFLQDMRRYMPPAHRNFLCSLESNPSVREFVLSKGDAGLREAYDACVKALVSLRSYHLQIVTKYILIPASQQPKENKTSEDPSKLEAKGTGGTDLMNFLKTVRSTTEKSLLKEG
ferric IDO1, sequence (P14902 whole entry): as above
ferric-superoxo IDO1, sequence (P14902 whole entry): as above

concentration above which there was a steep inhibitory effect on IDO1 activity (IDO1) | 3MI-induced IDO1 activity with glutathione (IDO1; 5 mM reduced glutathione added (FIG. 2, 201)) | time after which the initial burst of IDO1 activity leveled off (IDO1; 3MI without glutathione (FIG. 2, 202), before tryptophan was consumed) | Ki (IDO1; single exponential fit of the inhibitory region at higher concentrations, read-out: Ki app (apparent Ki at half-activity)) | selectivity: IDO1 binding rate constant exceeding that of the cytochrome c reduction (ferric IDO1; IDO1 versus cytochrome c) | kon (ferric IDO1; pseudo-first-order conditions, stopped-flow, ferric IDO1, read-out: on-rate / second-order rate constant of binding to IDO1) | time to complete the shift from ferric-superoxo complex to ferric IDO1 (ferric-superoxo IDO1) | IDO1 activity, product N-formylkynurenine absorbance at 321 nm over time (FIG. 6) (IDO1; IDO1 50 nM, 0.1 mM L-tryptophan, 5 mM glutathione, 100 mM sodium phosphate pH 7.0, <1 μM compound, background subtracted) | Structure (SMILES) | activation of IDO1 (IDO1; FIG. 2) | second-order rate constant of reaction (reduction) with myoglobin (myoglobin) | second-order rate constant of reaction (reduction) with hemoglobin (hemoglobin) | second-order rate constant of reaction (reduction) with cytochrome c (ferric cytochrome c)
Above 5 μM | sustained | 500 s | 8 ± 3 µM | an order of magnitude | 1.7e+06 M⁻¹ s⁻¹ | < 10 ms | – | Sc1c[nH]c2ccccc12 [3MI, 3-Mercaptoindole] | inducing turnover even at nM concentrations | 6600 M⁻¹ s⁻¹ | 16000 M⁻¹ s⁻¹ | 270000 M⁻¹ s⁻¹
– | – | – | – | – | – | – | increase in absorbance | Fc1cc2c(S)c[nH]c2cc1Cl [6-chloro-5-fluoro-1H-indole-3-thiol] | – | – | – | –
